Source: ChEMBL document CHEMBL6134857, “Novel Spiro-Barbiturates Can Reverse the Action of General Anesthetics on the GABAAR” (J Med Chem, 2025)

Columns and labels:
Assay type in all cases: cell membranes
[1] = biological target: T1, GABA-A receptor; alpha-1/beta-3/gamma-2 (Homo sapiens, UniProt P14867+P18507+P28472); test: Positive allosteric modulation on [3H]muscimol binding to full length human N-terminal flag-tagged alpha1-beta3-C-terminal 1D4-tagged gamma2 GABAA receptor extracted from Tetracycline-resistant HEK293 cell membrane assessed as [3H]muscimol binding incubated for 30 mins
T1 sequence (P14867 whole entry): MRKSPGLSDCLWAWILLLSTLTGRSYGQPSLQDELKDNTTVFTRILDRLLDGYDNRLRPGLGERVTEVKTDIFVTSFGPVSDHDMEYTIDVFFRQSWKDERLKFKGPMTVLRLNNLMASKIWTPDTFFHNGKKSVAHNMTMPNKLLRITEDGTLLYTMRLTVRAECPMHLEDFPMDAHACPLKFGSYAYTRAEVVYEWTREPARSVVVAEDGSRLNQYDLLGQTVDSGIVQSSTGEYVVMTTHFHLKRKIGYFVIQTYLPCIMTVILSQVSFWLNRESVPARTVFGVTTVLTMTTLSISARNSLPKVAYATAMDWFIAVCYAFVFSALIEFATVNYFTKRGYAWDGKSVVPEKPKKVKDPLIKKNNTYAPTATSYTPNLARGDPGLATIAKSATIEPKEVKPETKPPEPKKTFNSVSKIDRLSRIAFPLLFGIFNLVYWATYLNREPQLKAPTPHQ
T1 sequence (P18507 whole entry): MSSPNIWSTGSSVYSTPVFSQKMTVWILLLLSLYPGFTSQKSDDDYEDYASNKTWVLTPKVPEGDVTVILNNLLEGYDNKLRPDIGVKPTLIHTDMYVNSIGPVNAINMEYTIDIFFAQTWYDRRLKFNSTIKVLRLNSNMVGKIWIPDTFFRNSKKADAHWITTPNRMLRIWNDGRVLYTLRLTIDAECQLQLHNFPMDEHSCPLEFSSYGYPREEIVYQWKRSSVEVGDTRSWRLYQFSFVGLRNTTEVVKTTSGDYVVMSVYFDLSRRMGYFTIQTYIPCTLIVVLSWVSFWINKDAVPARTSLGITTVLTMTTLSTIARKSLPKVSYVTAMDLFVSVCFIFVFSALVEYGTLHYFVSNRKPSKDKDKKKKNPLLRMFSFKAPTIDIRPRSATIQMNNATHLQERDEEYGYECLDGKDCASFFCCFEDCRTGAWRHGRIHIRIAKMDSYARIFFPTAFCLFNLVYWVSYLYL
T1 sequence (P28472 whole entry): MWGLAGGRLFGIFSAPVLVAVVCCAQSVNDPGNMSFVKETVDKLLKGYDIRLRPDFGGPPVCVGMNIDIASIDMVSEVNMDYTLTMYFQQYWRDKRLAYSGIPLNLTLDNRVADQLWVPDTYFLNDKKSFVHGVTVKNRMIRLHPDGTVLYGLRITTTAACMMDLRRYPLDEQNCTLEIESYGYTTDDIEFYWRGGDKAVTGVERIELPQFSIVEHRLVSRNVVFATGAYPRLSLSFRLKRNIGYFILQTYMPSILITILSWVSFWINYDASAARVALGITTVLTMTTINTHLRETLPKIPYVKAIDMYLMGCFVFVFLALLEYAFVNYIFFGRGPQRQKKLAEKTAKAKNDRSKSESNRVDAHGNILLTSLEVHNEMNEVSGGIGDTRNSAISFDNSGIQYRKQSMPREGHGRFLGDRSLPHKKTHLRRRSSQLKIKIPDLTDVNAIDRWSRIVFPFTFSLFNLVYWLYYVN

[2] = biological target: T2, GABA-A receptor; alpha-1/beta-3/gamma-2 (Homo sapiens) (UniProt P14867+P18507+P28472); test: Effect on [3H]muscimol binding to full length human N-terminal flag-tagged alpha1-beta3-C-terminal 1D4-tagged gamma2 GABAA receptor extracted from Tetracycline-resistant HEK293 cell membrane assessed as fold change in [3H]muscimol binding at 300 uM incubated for 30 mins; details: filed as modulator
[3] = biological target: T2, GABA-A receptor; alpha-1/beta-3/gamma-2 (Homo sapiens); test: (§1) Inhibition of R-mTFD-MPAB-induced [3H]muscimol binding to full length human N-terminal flag-tagged alpha1-beta3-C-terminal 1D4-tagged gamma2 GABAA receptor extracted from Tetracycline-resistant HEK293 cell membrane assessed as fold change at 300 uM incubated for 30 mins; details: filed as modulator
[4] = biological target: T1, GABA-A receptor; alpha-1/beta-3/gamma-2; test: Inhibition of R-mTFD-MPAB-induced [3H]muscimol binding to full length human N-terminal flag-tagged alpha1-beta3-C-terminal 1D4-tagged gamma2 GABAA receptor extracted from Tetracycline-resistant HEK293 cell membrane incubated for 30 mins
[5] = biological target: T1, GABA-A receptor; alpha-1/beta-3/gamma-2; test: Mixed-type inhibition of R-mTFD-MPAB-induced [3H]muscimol binding to full length human N-terminal flag-tagged alpha1-beta3-C-terminal 1D4-tagged gamma2 GABAA receptor extracted from Tetracycline-resistant HEK293 cell membrane incubated for 30 mins
[6] = biological target: T1, GABA-A receptor; alpha-1/beta-3/gamma-2; test: Mixed effect on [3H]muscimol binding to full length human N-terminal flag-tagged alpha1-beta3-C-terminal 1D4-tagged gamma2 GABAA receptor extracted from Tetracycline-resistant HEK293 cell membrane assessed as [3H]muscimol binding incubated for 30 mins
[7] = biological target: T2, GABA-A receptor; alpha-1/beta-3/gamma-2 (Homo sapiens); test: as §1, with “[3H]flunitrazepam” for “R-mTFD-MPAB-induced [3H]muscimol”, “reduction in [3H]flunitrazepam binding” for “fold change”, “mins relative to control” for “mins”
[8] = biological target: T2, GABA-A receptor; alpha-1/beta-3/gamma-2 (Homo sapiens); test: Positive allosteric modulation on R-mTFD-MPAB-induced [3H]muscimol binding to full length human N-terminal flag-tagged alpha1-beta3-C-terminal 1D4-tagged gamma2 GABAA receptor extracted from Tetracycline-resistant HEK293 cell membrane at 300 uM incubated for 30 mins relative to control
[9] = biological target: T2, GABA-A receptor; alpha-1/beta-3/gamma-2 (Homo sapiens); test: Modulation of [3H]flunitrazepam binding to full length human N-terminal flag-tagged alpha1-beta3-C-terminal 1D4-tagged gamma2 GABAA receptor extracted from Tetracycline-resistant HEK293 cell membrane assessed as fold change in [3H]flunitrazepam binding at 300 uM incubated for 30 mins; details: filed as modulator
[10] = biological target: T2, GABA-A receptor; alpha-1/beta-3/gamma-2 (Homo sapiens); test: Effect on [3H]muscimol binding to full length human N-terminal flag-tagged alpha1-beta3-C-terminal 1D4-tagged gamma2 GABAA receptor extracted from Tetracycline-resistant HEK293 cell membrane assessed as [3H]muscimol binding at 300 uM incubated for 30 mins relative to control
[11] = biological target: T2, GABA-A receptor; alpha-1/beta-3/gamma-2 (Homo sapiens); test: Inhibition of R-mTFD-MPAB-induced [3H]muscimol binding to full length human N-terminal flag-tagged alpha1-beta3-C-terminal 1D4-tagged gamma2 GABAA receptor extracted from Tetracycline-resistant HEK293 cell membrane at 300 uM incubated for 30 mins relative to control

Question: Which EC50 [1] does the source give for `CC(C)c1ccc2c(c1)C1(CC2)C(=O)NC(=O)N(C)C1=O` (stereo in doubt; 5h-2) here?
Answer: 38 µM

Question: For `CN=C1NC(=O)C2(CCc3ccccc32)C(=O)N1` (stereo not drawn), which fold change (FC) [2] is on record?
Answer: -0.09

Question: What about the fold change (FC) [3] of the same compound?
Answer: 0.35

Question: What about the IC50 [4] of the same compound?
Answer: 99 µM

Question: `Cc1ccc2c(c1)C1(CC2)C(=O)NC(=O)N(C)C1=O` (stereo in doubt; 4h-2) was tested. Which IC50 [5] did it give?
Answer: 38 µM

Question: What about the EC50 [6] of the same compound?
Answer: 32 µM

Question: With `O=C1NC(=O)C2(CC(O)c3ccccc32)C(=O)N1` (stereo in doubt; 1t-2) as the compound, how does the IC50 [4] read?
Answer: 113 µM

Question: What does the source list for `O=C1NC(=O)C2(CCc3ccccc32)C(=O)N1`?
Answer: fold change (FC) [2]: -0.02; fold change (FC) [3]: 0.53; IC50 [4]: 18 µM; inhibition [7]: 12%

Question: With `CC(C)c1ccc2c(c1)C1(CC2)C(=O)NC(=O)N(C)C1=O` (stereo in doubt; 5h-1) [listing 1 of 2 here] as the compound, how does the fold change (FC) [2] read?
Answer: 0.8

Question: And the fold change (FC) [3]?
Answer: 0.73

Question: And the Activity ([8]; filed as positive allosteric modulator)?
Answer: 80%

Question: What about the fold change (FC) [9] of the same compound?
Answer: 0.84

Question: And the inhibition [7]?
Answer: 12%

Question: Which EC50 [1] does the source give for `CC(C)c1ccc2c(c1)C1(CC2)C(=O)NC(=O)N(C)C1=O` (stereo in doubt; 5h-1) [listing 2 of 2 here] here?
Answer: 32 µM

Question: Which results are given for `CC(C)c1ccc2c(c1)C1(CC2)C(=O)NC(=O)NC1=O`?
Answer: fold change (FC) [2]: 0.26; fold change (FC) [3]: 0.9; Activity [10]: < 10%; inhibition [11]: > 40%; EC50 [1]: 22 µM; Activity [8]: 20%
